Source: ChEMBL document CHEMBL1135293, “Amino acid derived sulfonamide hydroxamates as inhibitors of procollagen C-proteinase. Part 2: Solid-phase optimization of side chains” (Bioorg Med Chem Lett, 2002)

These compounds were tested against T1, Bone morphogenetic protein 1 (Homo sapiens, UniProt P13497) (assay: Inhibitory activity against procollagen C-proteinase (PCP).).
T1 sequence (P13497 whole entry): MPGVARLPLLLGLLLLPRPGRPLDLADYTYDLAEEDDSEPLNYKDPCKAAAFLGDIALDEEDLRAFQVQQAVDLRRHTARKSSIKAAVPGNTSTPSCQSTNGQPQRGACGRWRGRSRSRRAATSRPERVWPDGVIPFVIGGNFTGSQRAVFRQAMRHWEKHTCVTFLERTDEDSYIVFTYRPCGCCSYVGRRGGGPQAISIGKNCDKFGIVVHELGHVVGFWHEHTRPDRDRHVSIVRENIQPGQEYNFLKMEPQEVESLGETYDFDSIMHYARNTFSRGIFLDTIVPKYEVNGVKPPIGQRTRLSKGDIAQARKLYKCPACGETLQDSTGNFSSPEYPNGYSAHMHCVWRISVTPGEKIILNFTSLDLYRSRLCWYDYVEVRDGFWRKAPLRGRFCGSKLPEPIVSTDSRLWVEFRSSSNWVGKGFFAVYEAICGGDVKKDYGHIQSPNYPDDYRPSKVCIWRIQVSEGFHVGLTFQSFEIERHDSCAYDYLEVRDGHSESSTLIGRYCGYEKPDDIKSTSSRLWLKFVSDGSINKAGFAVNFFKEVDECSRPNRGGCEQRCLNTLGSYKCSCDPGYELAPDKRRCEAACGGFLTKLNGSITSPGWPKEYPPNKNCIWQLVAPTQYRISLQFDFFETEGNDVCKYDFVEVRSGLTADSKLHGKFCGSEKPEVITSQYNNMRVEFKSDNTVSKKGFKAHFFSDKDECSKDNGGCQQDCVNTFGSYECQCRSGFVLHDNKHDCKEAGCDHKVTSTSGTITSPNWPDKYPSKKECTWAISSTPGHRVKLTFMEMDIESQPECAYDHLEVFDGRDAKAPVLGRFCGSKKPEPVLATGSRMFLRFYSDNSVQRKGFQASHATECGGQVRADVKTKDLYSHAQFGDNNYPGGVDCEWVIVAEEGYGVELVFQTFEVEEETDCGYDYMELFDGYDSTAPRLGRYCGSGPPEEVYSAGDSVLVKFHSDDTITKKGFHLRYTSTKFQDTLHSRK

First: COc1ccc(S(=O)(=O)N(Cc2ccc3c(c2)OCO3)[C@H](Cc2ccco2)C(=O)O)cc1
Second: COC(=O)c1ccc(CN([C@H](Cc2cccs2)C(=O)O)S(=O)(=O)c2ccc(OC)cc2)cc1
The IC50 of the first is 2.2-fold higher: 470 nM for the first, 210 nM for the second. The second is the more potent here.

Compared with COc1ccc(S(=O)(=O)N(Cc2cccc(F)c2F)[C@H](Cc2cccs2)C(=O)NO)cc1, COc1ccc(S(=O)(=O)N(Cc2ccc(-c3cnns3)cc2)[C@H](Cc2cccs2)C(=O)NO)cc1 is 4.4-fold higher in IC50: 100 nM for the first, 440 nM for the second.
